Data reported in PMC8945686, “Anticancer Effects with Molecular Docking Confirmation of Newly Synthesized Isatin Sulfonamide Molecular Hybrid Derivatives against Hepatic Cancer Cell Lines” (Biomedicines, 2022).
“And” between values parts separate entries of the source, which are not always exact repeats. Equal entries are not always repeated. Marks after values point to notes of the source that are not given here.

Tests used:
[1] = test system: HepG2 cells; assay: Annexin V/FITC-PI apoptosis assay; assay type: cell-based, human; details: for %Cell Death Early Apoptosis / %Cell Death Late Apoptosis / %Cell Death Total Apoptosis / Necrosis: HepG2, IC50 of the compound, 24 h (method says 48 h)
Experimental: Annexin V/PI double staining kit (eBiosciencesDx) was used to detect apoptotic activity of the selected isatin sulfonamide derivatives. The Annexin V corresponding signal provides a very sensitive marker for cellular apoptosis, while PI was used to detect necrotic or late apoptotic cells, identified by the loss of plasma integrity and loss of nuclear membranes.
Briefly, 1 × 10^5 cells/mL of HepG2 cells were seeded into a 6-well plate and incubated at 37 °C, 5% CO2, overnight. […] After time elapsed, trypsinization of cells was carried out. Washing was done by PBS once, followed by fixation using 70% ethanol. Fixed cells were stored at 4 °C for 2 h, then centrifuged at 500× g for 5 min. Again, cells were washed with PBS prior to staining. An amount of 200 μL of the staining solution (annexin V- fluorescein 5-isothiocyanate (FITC) and PI in binding buffer (10 mM HEPES, 140 mM NaCl, and 2.5 mM CaCl2 at pH 7.4)) were added to the cell suspension and incubated at 37 °C for 20 to 30 min in dark and analyzed with a fluorescence-activated cell sorter (FACS) (BD FACSCalibur, BD Biosciences, California, USA). Data were analyzed using ModFit LT v2.0 (Verity Software House, Topsham, Maine, USA).
These plots were divided into four regions corresponding to: • (1) Viable cells, which are negative to both probes (PI/FITC −/−), • (2) Apoptotic cells, which are PI negative and Annexin positive (PI/FITC −/+), • (3) Late apoptotic cells, which are both PI and Annexin positive (PI/FITC +/+), • (4) Necrotic cells, which are PI positive and Annexin negative (PI/FITC+/−).

[2] = test system: Huh7 cells; assay: MTT cytotoxicity assay on Huh7 cells; assay type: cell-based, human; details: for % Death Rate at 100 p.p.m (μg/mL) Huh7: 48 h; for IC50: Homo sapiens, Huh-7, 48 h
Experimental: (§1) MTT-based cell viability assay was carried out to evaluate the antiproliferation potential of the target compounds on HCC cell lines (HepG2 and Huh7). The half maximal inhibitory concentration (IC50) values were calculated against DMSO non-treated HepG2 cells (negative control) and Dox-treated HepG2 cells (positive control). The assay was conducted using 3-(4, 5-di-MethylThiazol-2-yl)-2,5-diphenyl Tetrazolium bromide (MTT) to test cell viability, according to the method described by Mosmann with minor changes. The yellow MTT is reduced in the viable cells to purple formazan. The insoluble formazan is solubilized by DMSO to colored solution measured spectrophotometrically. Briefly, cells were seeded in a 96-well plate at density of 1 × 10^4 cells/well for 24 h in 5% CO2 incubator at 37 °C to allow their adherence. […] After incubation, 20 μL of a 5 mg/mL MTT solution were mixed with the contents of each well, and the plate was incubated for another 4 h. Then, the medium was suctioned, and the wells were washed with PBS. After 2 h of drying, 200 μL of DMSO was added to each well. The plate was set on a shaker to dissolve the formazan crystals. Then, the absorbance was measured spectrophotometrically at 570 nm with a reference wavelength of 630 nm using ELX800 UV universal microplate reader (BioTek Instruments Inc., VT, Santa Clara, CA, USA).
(§2) All experiment conditions were tested in three replicates. The % cell viability was calculated from the following equation: (mean absorbance of treated sample/mean absorbance of negative control sample) × 100. The % death rate = 100 -% cell viability, and the inhibitory concentration of 50% (IC50) was measured from the exponential curve of viability against concentration (dose–response curve).

[3] = test system: urokinase Plasminogen Activator (uPA); assay: uPA level in HepG2 cell lysate (ELISA); assay type: cell-based, human; details: HepG2 treated at IC50, 48 h
Experimental: (§3) As previously described, with little modification, HepG2 cells were cultured in T25 flask until they reached 30% confluency. […] After treatment, cells were washed by PBS, trypsinized and centrifuged at 10,000 rpm. The formed pellets were washed twice with PBS and lysed in 1 mL ice-cold radio immunoprecipitation assay (RIPA) lysis buffer (50 mM Tris-HCl, pH 8.0, 150 mM NaCl, 1% Triton X-100, 0.5% sodium deoxycholate, 0.1% sodium dodecyl sulfate) and kept on ice for 20 min. Then, the mixture was centrifuged at 15,000 rpm for 15 min to remove any cell debris. The cell lysate was aliquoted and stored at −80 °C for determination of protein using Pierce BCA Protein Assay Kit (Thermo Fisher Scientific, Waltham/Boston, USA) according to manufacturer’s recommendations and determination of other biochemical parameters including EGFR, urokinase Plasminogen Activator (uPA), B-Cell Lymphoma-2 (Bcl-2), heparanase, and oxidative stress markers (glutathione; GSH and malonaldehyde; MDA).
(§4) Levels of EGFR [37] and heparanase in cell lysate were investigated using commercially available enzyme-linked immunosorbent assay (ELISA) kits supplied by Abcam (Cat. No. ab269558, ab256401, respectively). Levels of uPA [39] were measured using ELISA kit supplied by Creative Diagnostics (New York, USA, Cat. No. DEIA1630). Bcl-2 levels were determined using ELISA kit supplied by Zymed Laboratories, Carlsbad, California (Cat. No. 99-0042). Briefly, standards and samples were added to corresponding 96-well plate coated with suitable antibody. After the washing step, biotinylated anti-human antibody was added to each well. After washing away unbound biotinylated antibody, horseradish peroxidase (HRP)-conjugated streptavidin was pipetted into each well. A peroxidase substrate solution was added to all wells, after washing, and the color developed was proportionate to the amount of EGFR bound. Finally, the stop solution was added and the color intensity was measured at 450 nm.

[4] = test system: HepG2 cells; assay: MTT cytotoxicity assay on HepG2 cells; assay type: cell-based; details: Homo sapiens; for cytotoxicity at 100 ppm: 48 h, 100 p.p.m (μg/mL), read-out: % Death Rate at 100 p.p.m (μg/mL) HepG2; for IC50: HepG2, 48 h
Experimental: as §1, §2

[5] = test system: EGFR; assay: EGFR level in HepG2 cell lysate (ELISA); assay type: cell-based, human; details: HepG2 treated at IC50, 48 h
Experimental: as §3, §4

Row | SMILES | %Cell Death Early Apoptosis [1] | %Cell Death Late Apoptosis [1] | %Cell Death Total Apoptosis [1] | Necrosis [1] | Total apoptosis, fold greater than negative control HepG2 cells ([1]; HepG2, negative control 1.47%) | % Death Rate at 100 p.p.m (μg/mL) Huh7 [2] | IC50 [2] | uPA level in cell lysate [3] | cytotoxicity at 100 ppm [4] | IC50 [4] | EGFR level in cell lysate [5] | uPA level in cell lysate ([3]; listed as Dox) | uPA level in cell lysate ([3]; listed as Positive)
1 | Cc1ccc(C(=O)CC2(O)C(=O)Nc3ccc(S(=O)(=O)N4CCCCC4)cc32)cc1 (stereo not drawn) [Compound 3a, 3-hydroxy-3-(2-oxo-2-(p-tolyl)ethyl)-5-(piperidin-1-ylsulfonyl)indolin-2-one] | 3.56% | 29.58% | 46.3% and 46.29% | 13.15% | 31.49 fold | 100 * % | 40 ± 2.2 µM | 1258 ± 15 nmol/mg protein and 1258 ± 15 ^a* nmol/mg protein | 70.1% | ~16.8 µM | 42 ± 2.3 pmol/mg protein and 42 ± 2.3 ^a*^,b* pmol/mg protein |  | 
2 | CC(=O)Nc1ccc(C(=O)C=C2C(=O)Nc3ccc(S(=O)(=O)N4CCCCC4)cc32)cc1 [Compound 4b, N-(4-(2-(2-oxo-5-(piperidin-1-ylsulfonyl)indolin-3-ylidene)acetyl)phenyl)acetamide] | 6.12% | 12.61% | 28.1% and 28.14% | 9.41% |  | 76.00 * % | 53 ± 3 µM | 1916 ± 40 nmol/mg protein and 1916 ± 40 ^a*^,b* nmol/mg protein | 94.2% | ~44.7 µM | 87.49 ± 3.4 ^a*^,b* pmol/mg protein |  | 
3 | CC(=O)Nc1cccc(C(=O)C=C2C(=O)Nc3ccc(S(=O)(=O)N4CCCCC4)cc32)c1 [Compound 4c, N-(3-(2-(2-oxo-5-(piperidin-1-ylsulfonyl)indolin-3-ylidene)acetyl)phenyl)acetamide] | 2.88% | 18.08% | 32.0% and 32.02% | 11.06% |  | 75.60 * % | 35 ± 1.9 µM | 1729 ± 38 nmol/mg protein and 1729 ± 38 ^a*^,b* nmol/mg protein | 95.6% | ~39.7 µM | 54 ± 2.4 ^a*^,b* pmol/mg protein |  | 
4 | COc1cccc2c1C(=O)c1c(O)c3c(c(O)c1C2=O)C[C@@](O)(C(=O)CO)C[C@@H]3O[C@H]1C[C@H](N)[C@H](O)[C@H](C)O1 [Doxorubicin, reference compound] | 1.85% | 26.27% | 42.38% | 14.26% |  | 100% | 11.6 ± 0.9 µM |  | 100% | 21.6 ± 0.81 µM | 27.5 ± 1.7 ^a* pmol/mg protein | 1244 ± 18 nmol/mg protein | 1244 ± 18 ^a* nmol/mg protein
